Measurements as given in the NIST ThermoML archive (doi:10.1021/je020228x).
± gives the expanded uncertainty stated by the source.

Legend:
[1] = Crystal
[2] = molar heat capacity at constant pressure; details: 445.51 K; 101.33 kPa; Crystal; Small sample (50 mg) DSC
[3] = molar enthalpy of transition or fusion; details: Crystal, DSC

Normal melting temperature ([1]; DTA)	molar heat capacity at constant pressure [2]	molar enthalpy of transition or fusion ([3]; 384.43 K)	molar enthalpy of transition or fusion ([3]; 445.51 K)	molar enthalpy of transition or fusion ([3]; 383.93 K)	molar enthalpy of transition or fusion ([3]; 451.43 K)	Normal melting temperature ([1]; visual observation)	SMILES
172.36 °C	49.09 J/K/mol	0.17 kcal/mol	4.89 kcal/mol				c1ccc2[nH]cnc2c1 [benzimidazole]
178.28 °C				0.14 kcal/mol	4.9 kcal/mol		Cc1nc2ccccc2[nH]1 [2-methylbenzimidazole]
						24.84 ± 0.39 °C	CC(C)(C)O [2-methylpropan-2-ol]
